Assay results from ChEMBL document CHEMBL1909625, “Sesquiterpene lactones from Inula falconeri, a plant endemic to the Himalayas, as potential anti-inflammatory agents” (Eur J Med Chem, 2011).

How the values were obtained:
[1] = system: RAW264.7; experiment: Antiinflammatory activity in mouse RAW264.7 cells assessed as inhibition of LPS-induced NO production pretreated for 30 mins before LPS challenge measured 24 hrs after LPS challenge by Griess reaction method; assay type: functional, cell-based
[2] = system: RAW264.7; experiment: Cytotoxicity against mouse RAW264.7 cells at antiinflammatory IC50 level by MTT assay; assay type: cell-based

IC50 [1] [µM]	SMILES	Activity [2]
20.3	C[C@@H]1C[C@@H]2OC(=O)[C@H](C)[C@H]2[C@H](O)[C@]2(C)C(=O)CC[C@@H]12	Non-toxic
3.94	C=C1C[C@H]2OC(=O)C(=C)[C@H]2C[C@@H]2[C@@H]1CC[C@@]2(C)O	Non-toxic
0.29	C=C1C(=O)O[C@H]2CC(=C)[C@H]3CC[C@@](C)(O)[C@@H]3[C@@H](O)[C@H]12	Non-toxic
35.5	C=C(CCCOC(=O)CCCCCCC/C=C\C/C=C\CCCCC)[C@@H]1CC(C)(C)[C@H]1CCC(C)=O	Non-toxic
6.4	C=C1C(=O)O[C@@H]2C[C@@]3(C)O[C@@H]3CC[C@@]3(C)O[C@H]3C[C@@H]12	Non-toxic
0.36	C=C1C(=O)O[C@H]2C[C@@H](C)[C@@H]3CC[C@H](O)[C@@]3(C)[C@@H](OC(C)=O)[C@H]12	Non-toxic
2.05	C=C1C(=O)O[C@H]2C[C@@H](C)[C@@H]3CC[C@H](OC(C)=O)[C@@]3(C)[C@@H](O)[C@H]12	Non-toxic
41.2	C=C1C[C@@H]2OC(=O)[C@H](C)[C@H]2C[C@@H]2[C@@H]1CC[C@@]2(C)O	Non-toxic
0.11	C=C1C(=O)O[C@H]2C[C@H](C)[C@@H]3CC[C@@]4(C)O[C@@]34C[C@H]12	Non-toxic
7.3	C=C1C[C@H]2OC(=O)C(=C)[C@H]2C[C@@H]2[C@@H]1CC[C@]2(C)O	Non-toxic
5.48	C=C1C(=O)O[C@@H]2C[C@H](C)C(CCC(C)O)=CC[C@H]12 (some centres not stated)	Non-toxic
0.07	C=C1C(=O)O[C@H]2C[C@@H](C)[C@@H]3CCC(=O)[C@@]3(C)[C@@H](OC(C)=O)[C@H]12 [ERGOLIDE]	Non-toxic
0.11	C=C1C(=O)O[C@@H]2C[C@@]3(C)[C@@H](O)C[C@@H](O)C(=C)[C@@H]3C[C@H]12 [GRANILIN]	Non-toxic
1.17	C=C1C(=O)O[C@@H]2C[C@@]3(C)CCC[C@H](C)C3=C[C@H]12 [HELENINE]	Non-toxic
15.8	C=C1C(=O)O[C@H](CC(C)=O)[C@@H]1CC1=C(C)CCC1=O [POSTIA SECOGUAIANOLIDE]	Non-toxic
9.89	C=C1C(=O)O[C@H]2C[C@@H](C)[C@@H]3CC[C@H](O)[C@@]3(C)C[C@H]12 [PSEUDOGUAIANOLIDE]	Non-toxic
7.14	C=C1C(=O)O[C@@H]2C[C@H](C)C(CCC(C)=O)=CC[C@H]12 [TOMENTOSIN]	Non-toxic

The next lines start with the compound.

SMILES	IC50 [1] [µM]	Activity [2]
C=C1C(=O)O[C@H]2C=C(C)[C@H]3CC[C@@](C)(O)[C@@H]3[C@@H](O)[C@H]12	0.13	Non-toxic
C=C1C(=O)O[C@@H]2C[C@@]3(C)[C@@H](O)C[C@@H](OC(=O)C=C(C)C)C(=C)[C@@H]3C[C@H]12	4.7	Non-toxic
C=C1C(=O)O[C@H]2C[C@@H](C)C(CCC(C)O)=CC[C@H]12 (some centres not stated)	0.87	Non-toxic
C=C1C(=O)O[C@@H]2C[C@H](C)C(CCC(C)OC(C)=O)=CC[C@H]12 (some centres not stated)	0.81	Non-toxic
CC(=O)CCC1=C[C@@H](O)[C@@H]2[C@H](C)C(=O)O[C@@H]2C[C@@H]1C	21.9	Non-toxic
C=C1C(=O)O[C@@H]2C[C@H](C)[C@]3(CCC(C)O)O[C@@H]3C[C@H]12 (some centres not stated)	18.9	Non-toxic
C[C@@H]1C[C@@H]2OC(=O)[C@H](C)[C@H]2C[C@]2(C)C(=O)CC[C@@H]12	10.8	Non-toxic
C=C1C[C@@H]2OC(=O)[C@@H](C)[C@H]2C[C@@H]2[C@@H]1CC[C@@]2(C)O	19.5	Non-toxic
C=C1C(=O)O[C@@H]2C[C@@]3(C)[C@@H](O)C[C@@H](OC(=O)C(C)C)C(=C)[C@@H]3C[C@H]12	9.12	Non-toxic
CC(=O)CCC1=CC[C@@H]2[C@H](C)C(=O)O[C@@H]2C[C@@H]1C	64.9	Non-toxic
C=C1C(=O)O[C@@H]2C[C@@H](C)[C@@H]3CCC(=O)[C@@]3(C)C[C@H]12	0.4	Non-toxic
C=C1C(=O)O[C@H]2C=C(C)[C@@H]3CC[C@](C)(O)[C@@H]3C[C@H]12 [4-EPI-ISOINUVISCOLIDE]	5.94	Non-toxic
C=C1C(=O)O[C@H]2C[C@@H](C)[C@@H]3CCC(=O)[C@@]3(C)[C@@H](O)[C@H]12 [CARPESIOLIN]	2.18	Non-toxic
CC(=O)O[C@H]1[C@H]2[C@H](C[C@@H](C)[C@@H]3CCC(=O)[C@]31C)OC(=O)[C@@H]2C [DIHYDROERGOLIDE]	8.34	Non-toxic
C=C1C(=O)O[C@H]2CC(=C)[C@H]3CC[C@@](C)(O)[C@@H]3C[C@H]12 [INUVISCOLIDE]	9.64	Non-toxic
N=C(N)NN [PIMAGEDINE]	0.2	
C=C1C(=O)O[C@H]2C[C@H](C)[C@@H]3CC(=O)C(C)=C3C[C@H]12 [XERANTOLIDE]	12.9	Non-toxic
